Assay results reported in patent publication US20230255974A1, “USE OF THYROMIMETICS FOR THE TREATMENT OF CANCER” (THE UNIVERSITY OF VERMONT, priority 2020, published 2023).

How the values were obtained:
MCF7 = test: Mammosphere growth, Luminal A breast cancer cells; assay type: cell-based; conditions: MCF7, 10 nM GC-1, 5 days
Excerpt: Data are mean+/−SD; * indicates p<0.05 determined by t-test.

MDA-MB-453 cells = test: Relative cell growth by cell counting, HER2+ breast cancer cells; assay type: cell-based; conditions: MDA-MB-453, 10 nM GC-1, 8 days
Procedure: A similar study was then performed in MDA-MB-453 cells, human epidermal growth factor positive-HER2+, breast cancer cells.

Compound: Cc1nc(NC(=O)N2CCC[C@H]2C(N)=O)sc1-c1ccnc(C(C)(C)C(F)(F)F)c1 [Alpelisib, (2S)-1-N-[4-methyl-5-[2-(1,1,1-trifluoro-2-methylpropan-2-yl)pyridin-4-yl]-1,3-thiazol-2-yl]pyrrolidine-1,2-dicarboxamide]
- effect of inhibitor in the presence of GC-1 (MCF7): enhanced the effect
- cell growth, inhibitor in the presence of GC-1 (MDA-MB-453 cells): enhanced the effect of Alpelisib in reducing cell growth
